Data on 24 compounds can be found in US12673961B2 (Agios Pharmaceuticals, Inc., priority 2022, dated 2026).

In one assay the target is T1, human PAH with the R408W mutation (Homo sapiens, UniProt P00439, R408W).
T1 construct: expressed in transfected cells
T1 sequence (P00439 1-452 R408W): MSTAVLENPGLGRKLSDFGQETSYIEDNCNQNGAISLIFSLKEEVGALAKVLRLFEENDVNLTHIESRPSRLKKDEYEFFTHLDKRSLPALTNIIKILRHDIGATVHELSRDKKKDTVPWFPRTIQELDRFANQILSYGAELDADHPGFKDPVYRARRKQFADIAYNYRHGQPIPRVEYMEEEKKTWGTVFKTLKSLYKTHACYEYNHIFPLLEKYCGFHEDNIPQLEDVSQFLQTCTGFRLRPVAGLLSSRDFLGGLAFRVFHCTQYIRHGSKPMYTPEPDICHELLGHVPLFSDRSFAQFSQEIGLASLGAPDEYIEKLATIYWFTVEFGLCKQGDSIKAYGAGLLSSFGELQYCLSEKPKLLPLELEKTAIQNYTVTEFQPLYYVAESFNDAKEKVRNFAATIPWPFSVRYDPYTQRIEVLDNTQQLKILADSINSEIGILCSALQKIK
Kind of assay: Cell Based Phenylalanine Flux Assay.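 Also: Ten-point dose curve from 2-fold serial dilutions, run in duplicate at 0.5% DMSO final, tracer step used 20 µM sepiapterin and 800 µM labeled phenylalanine.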 The following applies: A375 cells expressing human R408W PAH; 24 hrs compound incubation; 13C-Tyrosine by LC-MS; average where tested multiple times; read-out: AC50.
A word on the AC50: it is the midpoint of the concentration-response curve, whichever way the signal moves. Consider `CC(C)(F)c1nnc(C(=O)N2CCc3[nH]cnc3[C@H]2c2cc3c(C(F)F)cccn3n2)o1` [Example 1350, (S)-(4-(4-(difluoromethyl)pyrazolo[1,5-a]pyridin-2-yl)-6,7-dihydro-1H-imidazo [4,5-c]pyridin-5(4H)-yl)(5-(2-fluoropropan-2-yl)-1,3,4-oxadiazol-2-yl)methanone], for which the AC50 was below 500 nM.

As for `Cn1ccc(-c2nnc(C(=O)N3CCc4[nH]cnc4[C@@H]3c3cc4c(C(F)F)cccn4n3)o2)n1` [Example 1353, (R)-(4-(4-(difluoromethyl)pyrazolo[1,5-a]pyridin-2-yl)-6,7-dihydro-1H-imidazo [4,5-c]pyridin-5(4H)-yl)(5-(1-methyl-1H-pyrazol-3-yl)-1,3,4-oxadiazol-2-yl)methanone], the AC50 is above 5000 nM.

In the case of `Cc1ncccc1-c1nnc(C(=O)N2CCc3[nH]cnc3[C@H]2c2cc3c(Cl)cccn3n2)o1` [Example 1356, (S)-(4-(4-chloropyrazolo [1,5-a]pyridin-2-yl)-6,7-dihydro-1H-imidazo[4,5-c]pyridin-5(4H)-yl)(5-(2-methylpyridin-3-yl)-1,3,4-oxadiazol-2-yl)methanone], the AC50 is below 500 nM.

As for `Cc1ncccc1-c1nnc(C(=O)N2CCc3[nH]cnc3[C@@H]2c2cc3c(Cl)cccn3n2)o1` [Example 1357, (R)-(4-(4-chloropyrazolo [1,5-a]pyridin-2-yl)-6,7-dihydro-1H-imidazo[4,5-c]pyridin-5(4H)-yl)(5-(2-methylpyridin-3-yl)-1,3,4-oxadiazol-2-yl)methanone], the AC50 is above 5000 nM.

Take `O=C(c1nnc(-c2cnccn2)o1)N1CCc2[nH]cnc2[C@H]1c1cc2cccc(C(F)(F)F)n2n1` [Example 1361, (S)-(5-(pyrazin-2-yl)-1,3,4-oxadiazol-2-yl)(4-(7-(trifluoromethyl)pyrazolo [1,5-a]pyridin-2-yl)-6,7-dihydro-1H-imidazo[4,5-c]pyridin-5(4H)-yl)methanone]: the AC50 lay in the range of 500 to 1000 nM.

Consider `O=C(c1nnc(-c2cnccn2)o1)N1CCc2[nH]cnc2[C@H]1c1cc2ccccn2n1` [Example 1362, (S)-(5-(pyrazin-2-yl)-1,3,4-oxadiazol-2-yl)(4-(pyrazolo[1,5-a]pyridin-2-yl)-6,7-dihydro-1H-imidazo[4,5-c]pyridin-5(4H)-yl)methanone], for which the AC50 was 500 to 1000 nM.

As to `Cc1ncccc1-c1nnc(C(=O)N2CCc3[nH]cnc3[C@H]2c2cc3ccccn3n2)o1` [Example 1364], the AC50 is below 500 nM.

As for `Cc1ncccc1-c1nnc(C(=O)N2CCc3[nH]cnc3[C@@H]2c2cc3ccccn3n2)o1` [Example 1365, (R)-(5-(2-methylpyridin-3-yl)-1,3,4-oxadiazol-2-yl)(4-(pyrazolo[1,5-a]pyridin-2-yl)-6,7-dihydro-1H-imidazo[4,5-c]pyridin-5(4H)-yl)methanone], the AC50 is above 5000 nM.

`Cc1c(-c2nnc(C(=O)N3CCc4[nH]cnc4[C@@H]3c3cc4cccc(C(F)F)n4n3)o2)cnn1C` [Example 1367, (R)-(4-(7-(difluoromethyl)pyrazolo[1,5-a]pyridin-2-yl)-6,7-dihydro-1H-imidazo[4,5-c]pyridin-5(4H)-yl)(5-(1,5-dimethyl-1H-pyrazol-4-yl)-1,3,4-oxadiazol-2-yl)methanone]: the AC50 fell in the range of 1000 to 5000 nM.

For `Cn1nc(C(F)F)cc1C(=O)N1CCc2[nH]cnc2[C@H]1c1cc2c(Cl)cccn2n1` [Example 1368, (S)-(4-(4-chloropyrazolo [1,5-a]pyridin-2-yl)-6,7-dihydro-1H-imidazo[4,5-c]pyridin-5(4H)-yl)(3-(difluoromethyl)-1-methyl-1H-pyrazol-5-yl)methanone], the AC50 was below 500 nM.

In the case of `Cn1nc(C(F)F)cc1C(=O)N1CCc2[nH]cnc2[C@H]1c1cc2c(C(F)F)cccn2n1` [Example 1372, (S)-(3-(difluoromethyl)-1-methyl-1H-pyrazol-5-yl)(4-(4-(difluoromethyl)pyrazolo [1,5-a]pyridin-2-yl)-6,7-dihydro-1H-imidazo[4,5-c]pyridin-5(4H)-yl)methanone], the AC50 is below 500 nM.

Turning to `Cn1nc(C(F)F)cc1C(=O)N1CCc2[nH]cnc2[C@@H]1c1cc2c(C(F)F)cccn2n1` [Example 1373, (R)-(3-(difluoromethyl)-1-methyl-1H-pyrazol-5-yl)(4-(4-(difluoromethyl)pyrazolo [1,5-a]pyridin-2-yl)-6,7-dihydro-1H-imidazo[4,5-c]pyridin-5(4H)-yl)methanone], the AC50 fell in the range of 1000 to 5000 nM.

Regarding `O=C(c1nnc(-c2ccn(C(F)F)n2)o1)N1CCc2[nH]cnc2[C@@H]1c1cc2c(C(F)F)cccn2n1` [Example 1376, (R)-(5-(1-(difluoromethyl)-1H-pyrazol-3-yl)-1,3,4-oxadiazol-2-yl)(4-(4-(difluoromethyl)pyrazolo[1,5-a]pyridin-2-yl)-6,7-dihydro-1H-imidazo[4,5-c]pyridin-5(4H)-yl)methanone], the AC50 is above 5000 nM.

For `Cc1cccc(-c2nnc(C(=O)N3CCc4[nH]cnc4[C@H]3c3cc4ccccn4n3)o2)n1` [Example 1382, (S)-(5-(6-methylpyridin-2-yl)-1,3,4-oxadiazol-2-yl)(4-(pyrazolo[1,5-a]pyridin-2-yl)-6,7-dihydro-1H-imidazo[4,5-c]pyridin-5(4H)-yl)methanone], the AC50 is below 500 nM.

With `Cn1nc(C(F)F)cc1C(=O)N1CCc2[nH]cnc2[C@H]1c1cc2cccc(C(F)(F)F)n2n1` [Example 1386, (S)-(3-(difluoromethyl)-1-methyl-1H-pyrazol-5-yl)(4-(7-(trifluoromethyl)pyrazolo [1,5-a]pyridin-2-yl)-6,7-dihydro-1H-imidazo[4,5-c]pyridin-5(4H)-yl)methanone], the AC50 lay in the range of 500 to 1000 nM.

The assay is the same for the next values; noted with them: A375 cells expressing human R408W PAH; 24 hrs with compound, then sepiapterin and 13C9,15N-Phenylalanine for 4 hours; 13C-Tyrosine by LC-MS; average where tested multiple times; read-out: AC50.
Consider `Cc1cccc(-c2nnc(C(=O)N3CCc4[nH]cnc4[C@H]3c3cc4cccc(C)n4n3)o2)n1` [Example 1398, (S)-(4-(7-methylpyrazolo [1,5-a]pyridin-2-yl)-6,7-dihydro-1H-imidazo[4,5-c]pyridin-5(4H)-yl)(5-(6-methylpyridin-2-yl)-1,3,4-oxadiazol-2-yl)methanone], for which the half-maximal activity concentration (AC50) was below 500 nM.

For `Cn1cc(-c2nnc(C(=O)N3CCc4[nH]cnc4[C@H]3c3cc4cccc(C(F)F)n4n3)o2)cn1` [Example 1406, (S)-(4-(7-(difluoromethyl)pyrazolo[1,5-a]pyridin-2-yl)-6,7-dihydro-1H-imidazo [4,5-c]pyridin-5(4H)-yl)(5-(1-methyl-1H-pyrazol-4-yl)-1,3,4-oxadiazol-2-yl)methanone], the AC50 was below 500 nM.

Regarding `O=C(c1nnc(-c2cnccn2)o1)N1CCc2[nH]cnc2[C@H]1c1cc2c(C(F)F)cccn2n1` [Example 1414, (S)-(4-(4-(difluoromethyl)pyrazolo[1,5-a]pyridin-2-yl)-6,7-dihydro-1H-imidazo [4,5-c]pyridin-5(4H)-yl)(5-(pyrazin-2-yl)-1,3,4-oxadiazol-2-yl)methanone], the AC50 was below 500 nM.

Take `O=C(c1nnc(-c2cnccn2)o1)N1CCc2[nH]cnc2[C@@H]1c1cc2c(C(F)F)cccn2n1` [Example 1415, (R)-(4-(4-(difluoromethyl)pyrazolo[1,5-a]pyridin-2-yl)-6,7-dihydro-1H-imidazo [4,5-c]pyridin-5(4H)-yl)(5-(pyrazin-2-yl)-1,3,4-oxadiazol-2-yl)methanone]: the AC50 was 1000 to 5000 nM.

As for `O=C(c1cnn2cc(-c3ccccn3)ccc12)N1CCc2[nH]cnc2[C@H]1c1cc2ccccn2n1` [Example 1416, (S)-(4-(pyrazolo[1,5-a]pyridin-2-yl)-6,7-dihydro-1H-imidazo[4,5-c]pyridin-5(4H)-yl)(6-(pyridin-2-yl)pyrazolo[1,5-a]pyridin-3-yl)methanone], the AC50 was below 500 nM.

Turning to `CC(C)(C)c1nnc(C(=O)N2CCc3[nH]cnc3[C@H]2c2cc3cccc(C(F)F)n3n2)o1` [Example 1419, (S)-(5-(tert-butyl)-1,3,4-oxadiazol-2-yl)(4-(7-(difluoromethyl)pyrazolo [1,5-a]pyridin-2-yl)-6,7-dihydro-1H-imidazo[4,5-c]pyridin-5(4H)-yl)methanone], the AC50 is 500 to 1000 nM.

With `O=C(c1nnc(-c2ccccn2)o1)N1CCc2[nH]cnc2[C@@H]1c1cc2cccc(C(F)F)n2n1` [Example 1420, (R)-(4-(7-(difluoromethyl)pyrazolo[1,5-a]pyridin-2-yl)-6,7-dihydro-1H-imidazo [4,5-c]pyridin-5(4H)-yl)(5-(pyridin-2-yl)-1,3,4-oxadiazol-2-yl)methanone], the AC50 is above 5000 nM.

For the compound `O=C(c1nnc(-c2cccnc2)o1)N1CCc2[nH]cnc2[C@@H]1c1cc2c(C(F)F)cccn2n1` [Example 1423, (R)-(4-(4-(difluoromethyl)pyrazolo[1,5-a]pyridin-2-yl)-6,7-dihydro-1H-imidazo [4,5-c]pyridin-5(4H)-yl)(5-(pyridin-3-yl)-1,3,4-oxadiazol-2-yl)methanone], the AC50 was above 5000 nM.

As to `COc1ccc(-c2nnc(C(=O)N3CCc4[nH]cnc4[C@H]3c3cc4c(C(F)F)cccn4n3)o2)nc1` [Example 1424, (S)-(4-(4-(difluoromethyl)pyrazolo[1,5-a]pyridin-2-yl)-6,7-dihydro-1H-imidazo [4,5-c]pyridin-5(4H)-yl)(5-(5-methoxypyridin-2-yl)-1,3,4-oxadiazol-2-yl)methanone], the AC50 is below 500 nM.
